{"source": "paper PMC3454380", "about": "“Chloroplast NADPH-Dependent Thioredoxin Reductase from Chlorella vulgaris Alleviates Environmental Stresses in Yeast Together with 2-Cys Peroxiredoxin” (PLoS ONE, 2012)", "key": {"[1]": {"molecular_target": "T1, His-mCvPrx (mature C. vulgaris 2-Cys Prx) (Chlorella vulgaris, UniProt K4PW22)", "T1 construct": "mature form without predicted chloroplast transit peptide, bp 161-745 of cDNA, 194 residues of 239 (46-239 if ORF starts at bp 26); His-tagged, pTrc99A, E. coli JM109, five synonymous rare-codon changes", "T1 sequence (K4PW22 46-239)": "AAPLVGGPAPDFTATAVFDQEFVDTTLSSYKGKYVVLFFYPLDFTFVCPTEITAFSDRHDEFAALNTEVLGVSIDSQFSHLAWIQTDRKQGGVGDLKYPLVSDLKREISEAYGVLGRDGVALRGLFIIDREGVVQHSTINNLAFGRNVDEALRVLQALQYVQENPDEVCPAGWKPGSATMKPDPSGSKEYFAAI", "experiment": "NADPH oxidation at […] nm, reconstituted with His-mCvNTRC", "format": "biochemical", "details": "300 uM NADPH, 4.0 uM His-mCvPrx, 4.0 uM His-mCvNTRC as reductant, 1 mM EDTA, 50 mM Na-phosphate pH 7.0"}, "[2]": {"molecular_target": "T2, His-mCvNTRC (mature C. vulgaris NTRC) (Chlorella vulgaris, UniProt B9ZYY5)", "T2 construct": "gene CvNTR-C; mature form (NTR domain plus C-terminal Trx domain) without transit peptide, C-terminal His-tag, pET-29b(+), E. coli BL21(DE3)pLysS", "T2 sequence (B9ZYY5 58-529)": "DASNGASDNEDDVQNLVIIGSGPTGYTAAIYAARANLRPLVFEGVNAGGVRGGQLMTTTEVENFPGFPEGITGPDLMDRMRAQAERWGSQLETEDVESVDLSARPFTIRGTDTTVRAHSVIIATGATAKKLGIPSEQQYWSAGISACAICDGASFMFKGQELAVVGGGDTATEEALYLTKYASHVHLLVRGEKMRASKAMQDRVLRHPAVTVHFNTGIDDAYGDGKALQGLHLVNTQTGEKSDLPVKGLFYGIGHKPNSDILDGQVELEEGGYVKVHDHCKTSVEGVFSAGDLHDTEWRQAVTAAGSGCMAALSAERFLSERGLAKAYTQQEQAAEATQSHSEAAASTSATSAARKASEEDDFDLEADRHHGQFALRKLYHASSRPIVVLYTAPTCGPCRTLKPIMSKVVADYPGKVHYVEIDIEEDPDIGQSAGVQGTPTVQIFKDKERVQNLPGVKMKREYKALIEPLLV", "experiment": "NADPH oxidation at […] nm, coupled to His-mCvPrx and peroxide", "format": "biochemical", "details": "300 uM NADPH, 100 uM peroxide, 4.0 uM His-mCvNTRC, 4.0 uM His-mCvPrx, 1 mM EDTA, 50 mM Na-phosphate pH 7.0"}}, "data": [{"smiles": "O=NOO", "note": "[peroxynitrite]", "values": [{"measurement": "specific activity", "setting": "[1]; 100 uM peroxynitrite", "result": "the mCvNTRC/mCvPrx antioxidant system could decompose ONOO^−"}]}, {"smiles": "NC(=O)C1=CN([C@@H]2O[C@H](COP(=O)(O)OP(=O)(O)OC[C@H]3O[C@@H](n4cnc5c(N)ncnc54)[C@H](OP(=O)(O)O)[C@@H]3O)[C@@H](O)[C@H]2O)C=CC1", "note": "[NADPH]", "values": [{"measurement": "specific activity", "setting": "[2]", "result": "the mCvNTRC/mCvPrx system used NADPH as a specific coenzyme to reduce peroxides"}]}, {"smiles": "CC(C)(C)OO", "note": "[tert-butyl hydroperoxide]", "values": [{"measurement": "specific activity", "setting": "[1]; 100 uM t-BOOH", "result": "a remarkably high rate of NADPH oxidation against both H2O2 and t-BOOH"}]}]}
